# Active and inactive are the calls of the source.
# Tests used:
# [1] = viability of HCT116 lacking mutant beta-catenin – cell-based, human colon tumor, dose response (AID 1045); format: functional;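 also: HCT116 colon tumor cells with beta catenin knocked out; cells exposed to compound for 60 hours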
# [2] = target: Photoreceptor-specific nuclear receptor (Homo sapiens, UniProt Q9Y5X4); format: functional, cell-based;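 also: CHO-S cells with Gal4-NCOR and VP16-NR2E3 two-hybrid luciferase reporter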
# [3] = target: T1, Apoptotic protease-activating factor 1 (Homo sapiens, UniProt O14727); format: functional
# T1 sequence (O14727 whole entry): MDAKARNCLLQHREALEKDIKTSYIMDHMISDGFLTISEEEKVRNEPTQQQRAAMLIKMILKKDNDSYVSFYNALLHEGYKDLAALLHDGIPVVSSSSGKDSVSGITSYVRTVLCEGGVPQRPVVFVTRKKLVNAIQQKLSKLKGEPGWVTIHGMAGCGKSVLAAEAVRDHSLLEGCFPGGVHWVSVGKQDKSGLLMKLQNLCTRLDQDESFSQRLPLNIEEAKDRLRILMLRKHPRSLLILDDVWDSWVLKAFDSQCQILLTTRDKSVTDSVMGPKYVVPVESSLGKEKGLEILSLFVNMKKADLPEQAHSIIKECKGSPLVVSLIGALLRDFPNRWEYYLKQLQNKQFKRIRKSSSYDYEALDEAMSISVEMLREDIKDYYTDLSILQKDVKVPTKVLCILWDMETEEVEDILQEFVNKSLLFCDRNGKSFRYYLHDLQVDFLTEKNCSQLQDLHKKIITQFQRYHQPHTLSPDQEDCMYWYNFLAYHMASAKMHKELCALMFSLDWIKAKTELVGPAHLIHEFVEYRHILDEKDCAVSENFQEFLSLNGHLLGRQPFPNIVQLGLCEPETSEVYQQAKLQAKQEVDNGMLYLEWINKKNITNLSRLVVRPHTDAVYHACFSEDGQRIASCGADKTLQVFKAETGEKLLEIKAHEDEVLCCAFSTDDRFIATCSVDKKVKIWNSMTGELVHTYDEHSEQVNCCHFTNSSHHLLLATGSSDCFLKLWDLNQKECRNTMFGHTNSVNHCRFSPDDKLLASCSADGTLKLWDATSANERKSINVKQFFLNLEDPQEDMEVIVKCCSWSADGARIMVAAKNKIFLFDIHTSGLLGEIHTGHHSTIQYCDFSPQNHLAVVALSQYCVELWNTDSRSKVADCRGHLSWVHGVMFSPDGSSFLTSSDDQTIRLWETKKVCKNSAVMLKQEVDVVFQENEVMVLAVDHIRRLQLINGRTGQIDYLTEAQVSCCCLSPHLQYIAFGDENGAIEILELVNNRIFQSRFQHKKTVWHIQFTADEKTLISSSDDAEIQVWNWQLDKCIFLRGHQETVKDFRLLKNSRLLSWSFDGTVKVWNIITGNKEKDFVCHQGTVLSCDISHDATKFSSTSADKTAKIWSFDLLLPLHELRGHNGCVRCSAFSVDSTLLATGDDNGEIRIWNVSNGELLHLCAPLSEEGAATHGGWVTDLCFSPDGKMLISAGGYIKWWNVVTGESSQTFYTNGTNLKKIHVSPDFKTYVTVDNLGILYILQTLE
# [4] = HEK-293T viability loss after treatment – luminescence, T-cell screen hits, cytotoxicity control for TCR NF-kB inhibitor project, dose response (AID 489026); format: functional, cell-based;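 also: cells exposed to compound about 14 hours before the viability readout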
# [5] = target: T2, Mitochondrial peptide methionine sulfoxide reductase (Bos taurus, UniProt P54149); experiment: Absorbance-based biochemical high throughput dose response assay for activators of Methionine sulfoxide reductase A (MsrA).; format: functional
# T2 sequence (P54149 whole entry): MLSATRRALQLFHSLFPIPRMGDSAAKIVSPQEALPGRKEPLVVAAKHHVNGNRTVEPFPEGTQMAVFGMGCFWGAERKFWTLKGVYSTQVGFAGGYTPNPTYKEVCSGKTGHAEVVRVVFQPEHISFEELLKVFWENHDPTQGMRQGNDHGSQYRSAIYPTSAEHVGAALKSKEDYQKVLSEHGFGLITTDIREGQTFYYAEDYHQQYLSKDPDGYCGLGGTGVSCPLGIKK
# HEK293 [6] = experiment: inhibition of NOD1-driven NF-kB reporter – cell-based, luminescence, uHTS, primary screen (AID 1578); format: functional; conditions: Homo sapiens
# HEK293 [7] = experiment: cells; format: functional, cell-based; conditions: Homo sapiens
# [8] = target: T3, Microphthalmia-associated transcription factor (Homo sapiens, UniProt O75030); experiment: reducers of TRPM1 reporter luminescence, concentration series – cell-based, SK-MEL-5, cherry-picked, set 3, MITF inhibitor project, dose response (AID 493073); format: functional;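 also: SK-MEL-5 melanoma cells with luciferase driven by the MITF target TRPM1 promoter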
# T3 sequence (O75030 whole entry): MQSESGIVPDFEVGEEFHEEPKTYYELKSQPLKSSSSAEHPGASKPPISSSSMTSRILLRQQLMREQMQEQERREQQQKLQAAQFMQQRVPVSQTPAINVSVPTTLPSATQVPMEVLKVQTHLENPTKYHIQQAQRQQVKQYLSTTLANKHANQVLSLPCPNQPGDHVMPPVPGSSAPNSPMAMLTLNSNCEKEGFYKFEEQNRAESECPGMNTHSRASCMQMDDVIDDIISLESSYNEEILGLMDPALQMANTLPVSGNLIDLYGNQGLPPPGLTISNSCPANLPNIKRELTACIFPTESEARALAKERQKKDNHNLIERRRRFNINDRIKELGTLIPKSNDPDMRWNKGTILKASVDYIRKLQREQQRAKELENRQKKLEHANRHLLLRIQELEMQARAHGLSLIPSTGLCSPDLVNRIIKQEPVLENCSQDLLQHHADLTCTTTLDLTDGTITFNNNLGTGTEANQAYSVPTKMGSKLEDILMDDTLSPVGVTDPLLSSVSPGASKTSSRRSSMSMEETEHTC
# [9] = NIH3T3 cell viability loss – ATP luminescence, mouse fibroblasts, counter-screen, dose response (AID 2010); format: functional, cell-based;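 also: cells exposed to compound for about 90 hours before reading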
# [10] = target: T4, RNA-binding protein pos-1 (Caenorhabditis elegans, UniProt G5EF15); experiment: disruptors of C. elegans POS-1 RNA interaction – biochemical, fluorescence polarization, dose response (AID 1964);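 also: purified POS-1 fused to maltose binding protein made in E. coli; potency of compounds blocking POS-1 binding to fluorescent RNA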
# T4 sequence (G5EF15 whole entry): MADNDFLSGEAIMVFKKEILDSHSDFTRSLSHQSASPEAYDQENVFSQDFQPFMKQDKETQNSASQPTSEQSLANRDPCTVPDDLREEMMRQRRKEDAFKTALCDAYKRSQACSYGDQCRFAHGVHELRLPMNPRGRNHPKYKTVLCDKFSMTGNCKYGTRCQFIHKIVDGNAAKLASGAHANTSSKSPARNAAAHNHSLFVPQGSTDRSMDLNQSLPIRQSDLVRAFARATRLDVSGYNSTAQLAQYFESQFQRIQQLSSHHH
# [11] = target: UDP-galactopyranose mutase (Mycobacterium tuberculosis, UniProt P9WIQ1); experiment: Inhibitors of Mycobacterium tuberculosis UDP-galactopyranose mutase (UGM) enzyme Measured in Biochemical System Using Plate Reader - 2105-02_Inhibitor_Dose_CherryPick_Activity. [Related pubchem assays (depositor defined):AID504439]
# [12] = Trypanosoma cruzi growth suppression in host cells – NIH3T3 host cells, beta-gal luminescence, confirmation (AID 2044); format: functional, cell-based;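 also: intracellular parasites grown in NIH/3T3 mouse fibroblasts as host cells; luminescent beta-galactosidase reporter signal from transgenic T. cruzi replicating inside host cells; inhibitors lower the luminescence signal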
# Genome polyprotein = Genome polyprotein (dengue virus type 2, UniProt P29990); experiment: flavivirus cap methylation enzyme inhibition – biochemical, confirmation dose response, primary screen (AID 588689); format: functional
# Genome polyprotein, sequence (P29990 2492-3391 limits assumed): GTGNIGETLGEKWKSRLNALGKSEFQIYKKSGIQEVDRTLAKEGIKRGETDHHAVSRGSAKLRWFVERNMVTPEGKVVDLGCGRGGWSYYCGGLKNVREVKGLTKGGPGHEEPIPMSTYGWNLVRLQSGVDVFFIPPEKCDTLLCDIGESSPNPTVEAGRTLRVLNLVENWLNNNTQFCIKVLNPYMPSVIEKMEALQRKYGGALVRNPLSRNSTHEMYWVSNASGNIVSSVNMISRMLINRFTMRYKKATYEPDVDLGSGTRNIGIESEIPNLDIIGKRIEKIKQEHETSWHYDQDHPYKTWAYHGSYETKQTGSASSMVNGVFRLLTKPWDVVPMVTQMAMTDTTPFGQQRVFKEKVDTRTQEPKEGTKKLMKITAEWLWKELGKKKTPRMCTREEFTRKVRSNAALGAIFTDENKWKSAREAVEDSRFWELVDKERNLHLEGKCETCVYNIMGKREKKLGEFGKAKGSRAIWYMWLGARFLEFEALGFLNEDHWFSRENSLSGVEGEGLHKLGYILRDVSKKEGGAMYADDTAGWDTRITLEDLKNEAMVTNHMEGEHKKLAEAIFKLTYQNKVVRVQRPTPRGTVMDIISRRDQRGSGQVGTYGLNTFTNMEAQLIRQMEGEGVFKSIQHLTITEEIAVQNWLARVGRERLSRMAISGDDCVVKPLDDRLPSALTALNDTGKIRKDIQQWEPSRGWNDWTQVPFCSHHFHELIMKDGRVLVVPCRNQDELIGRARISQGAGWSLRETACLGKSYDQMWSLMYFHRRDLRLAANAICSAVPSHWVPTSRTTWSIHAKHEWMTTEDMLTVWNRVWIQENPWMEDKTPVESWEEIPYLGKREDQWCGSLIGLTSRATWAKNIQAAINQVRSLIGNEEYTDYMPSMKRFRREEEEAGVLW
# Photoreceptor-specific nuclear receptor, sequence (Q9Y5X4 whole entry, the tested form may be a part): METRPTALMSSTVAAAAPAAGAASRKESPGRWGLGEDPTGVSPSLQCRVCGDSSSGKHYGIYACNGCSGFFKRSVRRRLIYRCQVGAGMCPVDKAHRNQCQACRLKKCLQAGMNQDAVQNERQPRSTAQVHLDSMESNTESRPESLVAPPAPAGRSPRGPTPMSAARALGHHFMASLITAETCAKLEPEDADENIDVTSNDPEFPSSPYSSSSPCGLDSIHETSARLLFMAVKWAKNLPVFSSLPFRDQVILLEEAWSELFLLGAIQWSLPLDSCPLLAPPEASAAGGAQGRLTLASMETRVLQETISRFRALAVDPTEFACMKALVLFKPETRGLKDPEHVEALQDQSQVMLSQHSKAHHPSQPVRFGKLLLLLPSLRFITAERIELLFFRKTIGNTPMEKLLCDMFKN
# UDP-galactopyranose mutase, sequence (P9WIQ1 whole entry): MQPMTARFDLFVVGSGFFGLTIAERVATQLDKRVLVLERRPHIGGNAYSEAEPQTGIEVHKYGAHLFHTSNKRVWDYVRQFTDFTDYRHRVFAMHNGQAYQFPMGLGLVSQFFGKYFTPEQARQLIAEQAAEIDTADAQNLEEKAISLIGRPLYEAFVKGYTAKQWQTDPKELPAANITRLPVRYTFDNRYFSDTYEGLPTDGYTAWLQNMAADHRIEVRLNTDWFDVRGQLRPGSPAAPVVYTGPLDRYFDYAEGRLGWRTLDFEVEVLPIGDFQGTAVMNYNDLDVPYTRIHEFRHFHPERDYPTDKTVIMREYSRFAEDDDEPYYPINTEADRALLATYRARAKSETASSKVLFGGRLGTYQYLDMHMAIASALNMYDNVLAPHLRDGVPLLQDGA
compound,measurement,setting,value
COc1ccc(CNC(=O)c2c(C)oc3c2C(=O)c2ccccc2C3=O)cc1,EC50,[1],13.9 µM (active)
same,IC50,[2],1.21 µM (active)
same,IC50,[3],23.1 µM (active)
same,IC50,[4],21.5 µM (inactive)
same,EC50,[5],> 104 µM (inactive)
CCSc1nsc(NC(=O)Nc2cccc(F)c2)n1,EC50,HEK293 [6],3.22 µM (active)
same,IC50,HEK293 [7],3.7 µM (active)
O=[N+]([O-])c1ccc(/C=N/n2cnc3ccccc32)s1,AC50,[8],6.25 µM (active)
same,EC50,[9],5.46 µM (active)
same,EC50,[10],> 300 µM (inconclusive)
same,AC50,[11],148 µM (active)
same,EC50,[12],0.257 µM (active)
CC(C)c1ccc(S(=O)(=O)/N=C2\C=C(NS(=O)(=O)c3ccccc3)C(=O)c3ccccc32)cc1,IC50,Genome polyprotein,25.7 µM (active)

# — ChEMBL document CHEMBL1201862, “PubChem BioAssay data set” (2004)
